Data taken from patent US20080103089A1, “Compounds, Compositions, Formulations and Process for Preparation Thereof and Method of Treatment and Management of Acidity and Related Disorders” (priority 2004, published 2008).

Experiments:
Format in all cases: physicochemical
[1] = Titration of Glutamic acid in water with NaOH
Excerpt: About one milliequivalent of NaOH was neutralized per milliequivalent of Glutamic acid in water to raise the pH of its aqueous solution from 2.9 to about 5.

[2] = Titration of Sodium Glutamate solution
Excerpt: Crystalline Sodium Glutamate gave solution of pH 6.7. It took, per milliequivalent of Sodium Glutamate used, little less than 1 milliequivalent of HCl to bring the pH from 6.7 down to 3 and about 1 milliequivalent of […] the pH from 6.7 to 10.8. Here, the crystalline Sodium Glutamate solution of pH 6.7 represents an intermediate form of alkaline protein.

[3] = Determination of Acid Neutralization Capacity (ANC) by titration against 1N HCl
Experimental: About 20 ml of 1N NaOH was added to about or less than 1 gram dry weight of the active ingredient (Protein isolate or protein rich extract) with about 10 ml water content. In cold treatment, the mixture was kept at room temperature overnight until the sedimented coagulum was seen to have been dispersed evenly in a solution. In a hot treatment, the mixture was kept in an oven at 80 degrees Celsius, volume restored to 30 ml by addition of distilled water and titrated after various stages of degradation after the period of treatment. Alkali remaining in excess was either neutralized by titrating against 1N HCl until pH dropped to 10.8 or by dialyzing the mixture using gelatin membrane against 700 milliliter portions of distilled water three to four times until the dialysate contained little alkalinity.
Acid Neutralization Capacity was noted as milliequivalents of HCl neutralized to maintain the pH at 3 for two hours and expressed as per gram dry weight of the active antacid ingredient or per dose of the antacid composition containing the active ingredient. Total volume of the reactants were adjusted to 30 ml or 40 ml and titrated against 1N HCl and pH was noted after each small dropwise addition. The pH was measured by a pH meter.
In titration of distilled water, it was observed that pH of the water raised rapidly to 10.8 with addition of a single drop. Similarly, while titrating 1N NaOH against 1N HCl, fall in pH from 12.2 to 10.8 was gradual. However, thereafter, just one drop was sufficient to lower the pH to neutral. Thus, it was clear that acid neutralized by the products within the pH range of 3 to 10.8 was due to Acid Neutralization Capacity when solutions of antacid active ingredients covered in the examples were titrated for determination of their ANC.
When alkali treated mixtures were titrated, acid required to bring down the pH to 10.8 was considered as acid required to neutralize the unreacted NaOH. Acid required to neutralize pH from 10.8 up to pH 3 was taken for calculation of ANC.
Whenever desired, the alkali treated mixture was dialysed through gelatin membrane against about 700 milliliters of distilled water each time three to four times. Significant quantity of alkalinity appeared in first two dialyses in first two hours. Third dialysis, usually done for several hours overnight usually contained very little of alkalinity in the range of pH 10.8 and above.

N[C@@H](CCC(=O)O)C(=O)O [Glutamic acid]
NaOH consumed ([1]; from pH 5 to 10.9): about 1.2 milliequivalents per milliequi | pH of aqueous solution ([1]; in water, before titration): 2.9 | NaOH neutralized ([1]; to raise pH from 2.9 to about 5): About one

N[C@@H](CCC(=O)[O-])C(=O)[O-].[Na+].[Na+] [Sodium Glutamate]
pH of solution ([2]; crystalline Sodium Glutamate in solution): 6.7 | HCl to bring the pH down ([2]; pH from 6.7 down to 3): less than 1 milliequivalent per milliequiv | HCl to raise the pH ([2]; pH from 6.7 to 10.8): about 1 milliequivalent per milliequiv

Casein
ANC ([3]; after cold alkali treatment (1N NaOH, room temperature overnight), pH 10.8 to 3): 1.5 milliequivalents of HCl per gr | ANC ([3]; after hot alkali treatment (80 degrees Celsius) of 2 days): 4.88 milliequivalents of HCl per gr | ANC ([3]; after hot alkali treatment (80 degrees Celsius) of 6 days): 8 milliequivalents of HCl per gr | ANC ([3]; untreated protein isolate, HCl neutralized to maintain pH 3 for two hours): 0.12 per gram
